Assay results published in patent US20240358692A1, “TREATMENT OF SCLERODERMA” (Aisa Pharma, Inc., priority 2023, published 2024).
“Also recorded” adds a separate entry of the source. Like-named read-outs stand apart in the source and are kept apart here.

Assays:
participants with SSc-RP [1] = assay: SHAQ - Visual Analog Scale - Pain; type: in vivo, human
Description: The standard, validated, patient reported outcome measures tool for SSc patients, the Scleroderma Health Assessment Questionnaire (SHAQ), will be used to assess the participant qualify of life. Details are attached in the Appendix. The participant quality of life will be scored, and a disability index calculated for each questionnaire completed by the patient at Screening and each in-clinic visit. The absolute change in participant quality of life from baseline to the end of each dosing period will be calculated similar to frequency data as before.
The standard, validated, patient reported outcome measures tool for SSc patients, the SHAQ, was collected at the time points specified in the study schedules (FIG. 2 and FIGS. 4A and 4B) to assess the participant's quality of life. The SHAQ included a Raynaud's VAS that will also be reported separately.
Pain on the SHAQ outcome measure on the first line in table F is a composite of all pain experienced in patients with SSc, comprising joint pain, back pain, headache, odynophagia, skin ulcer related discomfort, Raynaud's, and neuropathic pain. Aisa Pharma believes, based on the biologic attributes and actions of cilnidipine that differ from most dihydropyridine calcium channel antagonists that cilnidipine might have direct analgesic effects in certain pain conditions and in fact has been designated to receive evaluation through the […] Preclinical Pain Screening Platform Program to investigate the drug in multiple in vitro and in vivo preclinical models of pain that are validated and predictive of effects in man.

participants with SSc-RP [2] = type: in vivo
Description: Treatment-emergent AEs (TEAEs) are defined as AEs that occur or worsen after the dose of study drug. If the timing of the start of an AE could not be determined unambiguously from the start or end dates provided, it will be assumed to be a TEAE. An AE is considered related if the relationship to either of the study drug has been indicated as possibly or probably or definite related by the investigator. An AE leading to study withdrawal is defined as an AE that cause a subject early terminated from the study. AEs will be identified as emerging in the following parts: • TEAEs for Part A will be those that started during Part A (i.e., from the first dose in Part A to end of follow up of Part A) • TEAEs for Part B will be those that started during Part B (i.e., from the first dose in Part B to end of follow-up of Part B).
In this study, AEs and SAEs were reported for all participants from the time of randomization until the completion of the Follow-up/EOS visit. Adverse events that were ongoing at the EOS visit were marked as Not Recovered/Not resolved on the AE eCRF page (see Section 9.4.4). The Investigator did full AE review during in-clinic visit. All spontaneously volunteered and enquired for, as well as observed AEs, were recorded in the participant's medical records and the eCRF.
Severity of AEs were graded by the Investigator as one of: • Mild (Grade 1): A type of AE that is usually transient and may require only minimal treatment or therapeutic intervention.

[3] = pooled Cilnidipine 10 mg and Cilnidipine 10 mg + Tadalafil 5 mg
[4] = pooled Cilnidipine 20 mg and Cilnidipine 20 mg + Tadalafil 5 mg
[5] = pooled cilnidipine 10 mg and 20 mg arms (combination: + tadalafil 5 mg)

COCCOC(=O)C1=C(C)NC(C)=C(C(=O)OC/C=C/c2ccccc2)C1c1cccc([N+](=O)[O-])c1 (stereo not shown) [Cilnidipine]
VAS Pain Change from Baseline Max (participants with SSc-RP [1]; [3]): 0.60 | VAS Pain Change from Baseline Mean (participants with SSc-RP [1]; [3]): −0.633 | VAS Pain Change from Baseline Median (participants with SSc-RP [1]; [3]): −0.700 | VAS Pain Change from Baseline Min (participants with SSc-RP [1]; [3]): −2.80, | VAS Pain Change from Baseline Q1 (participants with SSc-RP [1]; [3]): −1.100, | VAS Pain Change from Baseline Q3 (participants with SSc-RP [1]; [3]): 0.000 | VAS Pain Day 12 Max (participants with SSc-RP [1]; [3]): 5.50 | VAS Pain Day 12 Median (participants with SSc-RP [1]; [3]): 2.900 | VAS Pain Day 12 Min (participants with SSc-RP [1]; [3]): 0.00, | VAS Pain Day 12 Q1 (participants with SSc-RP [1]; [3]): 1.000, | VAS Pain Day 12 Q3 (participants with SSc-RP [1]; [3]): 3.800 | VAS Pain Percent Change from Baseline Max (participants with SSc-RP [1]; [3]): 18.8% | VAS Pain Percent Change from Baseline Mean (participants with SSc-RP [1]; [3]): −20.07% | VAS Pain Percent Change from Baseline Median (participants with SSc-RP [1]; [3]): −21.87% | VAS Pain Percent Change from Baseline Min (participants with SSc-RP [1]; [3]): −72.2, % | VAS Pain Percent Change from Baseline Q1 (participants with SSc-RP [1]; [3]): −37.46, % | VAS Pain Percent Change from Baseline Q3 (participants with SSc-RP [1]; [3]): 5.77% | VAS Pain Change from Baseline Max (participants with SSc-RP [1]; [4]): 0.90 | VAS Pain Change from Baseline Mean (participants with SSc-RP [1]; [4]): −0.700 | VAS Pain Change from Baseline Median (participants with SSc-RP [1]; [4]): −0.650 | VAS Pain Change from Baseline Min (participants with SSc-RP [1]; [4]): −2.00, | VAS Pain Change from Baseline Q1 (participants with SSc-RP [1]; [4]): −1.700, | VAS Pain Change from Baseline Q3 (participants with SSc-RP [1]; [4]): −0.100 | VAS Pain Day 12 Max (participants with SSc-RP [1]; [4]): 5.30 | VAS Pain Day 12 Mean (participants with SSc-RP [1]; [4]): 2.000 | VAS Pain Day 12 Median (participants with SSc-RP [1]; [4]): 2.100 | VAS Pain Day 12 Min (participants with SSc-RP [1]; [4]): 0.40, | VAS Pain Day 12 Q1 (participants with SSc-RP [1]; [4]): 0.700, | VAS Pain Day 12 Q3 (participants with SSc-RP [1]; [4]): 2.200 | VAS Pain Percent Change from Baseline Max (participants with SSc-RP [1]; [4]): 20.5% | VAS Pain Percent Change from Baseline Median (participants with SSc-RP [1]; [4]): −51.06% | VAS Pain Percent Change from Baseline Min (participants with SSc-RP [1]; [4]): −58.6, % | VAS Pain Percent Change from Baseline Q1 (participants with SSc-RP [1]; [4]): −55.56, % | VAS Pain Percent Change from Baseline Q3 (participants with SSc-RP [1]; [4]): −4.55% | VAS Pain Change from Baseline Max (participants with SSc-RP [1]; [5]): 0.30 | VAS Pain Change from Baseline Median (participants with SSc-RP [1]; [5]): −0.500 | VAS Pain Change from Baseline Min (participants with SSc-RP [1]; [5]): −2.00, | VAS Pain Change from Baseline Q1 (participants with SSc-RP [1]; [5]): −0.800, | VAS Pain Change from Baseline Q3 (participants with SSc-RP [1]; [5]): 0.000 | VAS Pain Day 12 Max (participants with SSc-RP [1]; [5]): 3.60 | VAS Pain Day 12 Median (participants with SSc-RP [1]; [5]): 1.000 | VAS Pain Day 12 Min (participants with SSc-RP [1]; [5]): 0.00, | VAS Pain Day 12 Q1 (participants with SSc-RP [1]; [5]): 0.400, | VAS Pain Day 12 Q3 (participants with SSc-RP [1]; [5]): 2.900 | VAS Pain Percent Change from Baseline Max (participants with SSc-RP [1]; [5]): 11.5% | VAS Pain Percent Change from Baseline Min (participants with SSc-RP [1]; [5]): −55.6, % | VAS Pain Percent Change from Baseline Q1 (participants with SSc-RP [1]; [5]): −53.33, % | VAS Pain Percent Change from Baseline Q3 (participants with SSc-RP [1]; [5]): 0.00% | tolerability (participants with SSc-RP [2]; 10 mg and 20 mg, alone or in combination with tadalafil): well tolerated | Safety: number of AE (participants with SSc-RP [2]; Cilnidipine 20 mg, HA, mild, n = 8): 1AE (HA−mild; 1 | Safety: withdrawals (participants with SSc-RP [2]; Cilnidipine 20 mg, n = 8): 1AE (HA−mild; 1 withdrawal | Safety: withdrawals (participants with SSc-RP [2]; Pooled Cilnidipine, n = 9): T); no withdrawals | treatment discontinuations due to intolerance (participants with SSc-RP [2]; all patients who received any dose of cilnidipine (n=17)): no treatment discontinuations due to intolerance were reported | incidence of Adverse Events / overall adverse event rate (participants with SSc-RP [2]; all patients who received any dose of cilnidipine (n=17), Part A): 17% | Adverse effects (participants with SSc-RP [2]; any Profervia dose): 17% Adverse effects in | severity grade of adverse events (participants with SSc-RP [2]; patients treated with cilnidipine, Part A): only Grade 1 Adverse Events (AEs) were reported; also recorded: only mild (Grade 1) adverse events occurred | Safety: grade of Adverse Events (AEs) (participants with SSc-RP [2]; summary of data): Grade 1 Adverse | Safety: treatment D/Cs (discontinuations) (participants with SSc-RP [2]; summary of data): No treatment D/Cs
